Measurements from patent US20230148214A1, “INDAZOLES AND AZAINDAZOLES AS LRRK2 INHIBITORS” (ESCAPE Bio, Inc., priority 2020, published 2023).

How the values were obtained:
LRRK2 G2019S = biological target: T1, LRRK2 G2019S (Homo sapiens, UniProt Q5S007, G2019S); experiment: LRRK2 Kinase Activity Assay (LanthaScreen TR-FRET), G2019S; format: biochemical; conditions: recombinant G2019S-LRRK2, 25 μM ATP, 400 nM LRRKtide, 60 min; class symbols
T1 construct: purchased Life Technologies PV4881
Method in brief: (§1)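 Recombinant wild-type or G2019S LRRK2 incubated with fluorescein-labeled LRRKtide (ERM-based) peptide, ATP and serially diluted compound for 60 min at room temperature.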

LRRK2 WT = biological target: T2, LRRK2 WT (Homo sapiens, UniProt Q5S007); experiment: LRRK2 Kinase Activity Assay (LanthaScreen TR-FRET), wild type; format: biochemical; conditions: recombinant wild type LRRK2, 25 μM ATP, 400 nM LRRKtide, 60 min
T2 construct: purchased Life Technologies PR8604B
Method in brief: as §1

T2 sequence (Q5S007 whole entry): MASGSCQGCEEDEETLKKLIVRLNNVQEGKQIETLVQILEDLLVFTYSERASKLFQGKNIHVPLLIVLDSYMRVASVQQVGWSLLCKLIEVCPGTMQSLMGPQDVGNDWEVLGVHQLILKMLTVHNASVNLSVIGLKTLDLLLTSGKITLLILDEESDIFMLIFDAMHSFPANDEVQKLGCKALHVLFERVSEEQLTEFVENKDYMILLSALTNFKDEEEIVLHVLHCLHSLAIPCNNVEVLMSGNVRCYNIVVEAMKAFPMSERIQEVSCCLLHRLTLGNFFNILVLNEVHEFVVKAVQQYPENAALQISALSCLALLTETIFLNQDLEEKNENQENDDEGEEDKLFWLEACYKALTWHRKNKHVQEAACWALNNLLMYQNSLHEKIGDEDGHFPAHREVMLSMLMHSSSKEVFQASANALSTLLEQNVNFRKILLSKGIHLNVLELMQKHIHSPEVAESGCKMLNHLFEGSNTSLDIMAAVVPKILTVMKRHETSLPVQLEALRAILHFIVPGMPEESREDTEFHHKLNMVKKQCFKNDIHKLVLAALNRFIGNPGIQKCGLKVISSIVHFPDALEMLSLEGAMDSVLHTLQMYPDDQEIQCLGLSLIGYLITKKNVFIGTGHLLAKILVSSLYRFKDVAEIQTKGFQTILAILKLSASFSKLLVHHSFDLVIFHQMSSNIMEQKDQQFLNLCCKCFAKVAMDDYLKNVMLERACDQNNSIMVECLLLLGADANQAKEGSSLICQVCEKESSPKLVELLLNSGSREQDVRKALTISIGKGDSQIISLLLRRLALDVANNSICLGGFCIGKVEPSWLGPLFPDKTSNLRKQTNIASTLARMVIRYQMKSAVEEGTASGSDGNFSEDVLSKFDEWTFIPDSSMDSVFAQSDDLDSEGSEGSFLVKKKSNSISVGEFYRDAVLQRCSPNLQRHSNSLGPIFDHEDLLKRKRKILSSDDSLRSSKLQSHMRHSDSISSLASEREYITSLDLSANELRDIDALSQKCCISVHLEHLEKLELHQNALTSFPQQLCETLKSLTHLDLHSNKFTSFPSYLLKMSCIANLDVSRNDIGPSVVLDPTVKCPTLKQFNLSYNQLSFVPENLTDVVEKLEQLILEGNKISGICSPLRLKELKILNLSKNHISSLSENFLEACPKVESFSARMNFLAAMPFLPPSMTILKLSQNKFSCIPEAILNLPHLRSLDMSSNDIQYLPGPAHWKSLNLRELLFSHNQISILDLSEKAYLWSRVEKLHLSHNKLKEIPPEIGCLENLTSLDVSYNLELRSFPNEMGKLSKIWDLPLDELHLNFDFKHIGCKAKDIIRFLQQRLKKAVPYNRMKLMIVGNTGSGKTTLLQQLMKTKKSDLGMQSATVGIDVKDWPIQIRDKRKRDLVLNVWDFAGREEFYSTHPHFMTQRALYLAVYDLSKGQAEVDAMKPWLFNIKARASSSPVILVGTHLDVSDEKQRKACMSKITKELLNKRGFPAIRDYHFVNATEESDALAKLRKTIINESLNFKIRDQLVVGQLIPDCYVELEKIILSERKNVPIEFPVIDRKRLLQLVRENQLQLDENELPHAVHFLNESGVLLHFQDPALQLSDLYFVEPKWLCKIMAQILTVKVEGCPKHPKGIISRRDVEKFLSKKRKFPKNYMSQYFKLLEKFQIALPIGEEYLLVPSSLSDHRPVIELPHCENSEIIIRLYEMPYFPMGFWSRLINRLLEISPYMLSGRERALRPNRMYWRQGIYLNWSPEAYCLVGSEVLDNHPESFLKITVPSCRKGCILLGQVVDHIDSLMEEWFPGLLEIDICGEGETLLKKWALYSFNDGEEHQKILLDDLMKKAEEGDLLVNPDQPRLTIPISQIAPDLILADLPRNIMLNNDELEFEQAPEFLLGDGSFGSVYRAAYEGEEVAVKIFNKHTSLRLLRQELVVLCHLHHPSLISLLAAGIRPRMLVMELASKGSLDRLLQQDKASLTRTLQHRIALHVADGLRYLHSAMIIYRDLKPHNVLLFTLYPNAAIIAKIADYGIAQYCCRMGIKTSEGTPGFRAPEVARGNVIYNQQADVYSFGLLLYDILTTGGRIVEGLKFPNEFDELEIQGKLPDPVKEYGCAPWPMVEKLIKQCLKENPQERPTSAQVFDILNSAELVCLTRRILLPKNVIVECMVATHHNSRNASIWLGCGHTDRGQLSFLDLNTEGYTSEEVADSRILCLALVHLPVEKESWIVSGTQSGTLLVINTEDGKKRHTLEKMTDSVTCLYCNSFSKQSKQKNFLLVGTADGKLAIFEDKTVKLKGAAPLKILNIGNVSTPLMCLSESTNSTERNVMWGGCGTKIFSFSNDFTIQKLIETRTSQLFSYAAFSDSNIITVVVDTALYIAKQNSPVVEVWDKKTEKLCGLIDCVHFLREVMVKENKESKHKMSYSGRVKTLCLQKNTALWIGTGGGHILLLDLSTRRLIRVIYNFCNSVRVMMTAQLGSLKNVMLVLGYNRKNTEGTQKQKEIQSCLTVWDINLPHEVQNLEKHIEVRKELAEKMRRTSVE
T1 sequence (Q5S007 whole entry G2019S): as the sequence (Q5S007 whole entry) above, with G2019S counted along it

| Compound | IC50 (LRRK2 G2019S) [nM] | IC50 (LRRK2 WT; class symbols) [nM] | IC50 (LRRK2 WT; numeric bound) [nM] |
| --- | --- | --- | --- |
| COc1cc(-c2n[nH]c3ccc(N[C@H]4CCc5cc(C#N)ccc54)cc23)ccn1 (single isomer, unassigned) [Example 40, enantiomer 1, 1-((3-(2-Methoxypyridin-4-yl)-1H-indazol-5-yl)amino)-2,3-dihydro-1H-indene-5-carbonitrile] | < 100 | 100 to 1000 | – |
| N#Cc1ccc2c(c1)CCC[C@@H]2Nc1ccc2[nH]nc(C3CCCCC3)c2c1 (single isomer, unassigned) [Example 45, 5-((3-Cyclohexyl-1H-indazol-5-yl)amino)-5,6,7,8-tetrahydronaphthalene-2-carbonitrile] | 1000 to 10000 | – | > 10000 |
| Cn1cccc(-c2n[nH]c3ccc(N[C@H]4CCCc5cc(C#N)ccc54)cc23)c1=O (single isomer, unassigned) [Example 46, 5-((3-(1-Methyl-2-oxo-1,2-dihydropyridin-3-yl)-1H-indazol-5-yl)amino)-5,6,7,8-tetrahydronaphthalene-2-carbonitrile] | 100 to 1000 | – | > 10000 |
| Cc1c(C#N)ccc2c1CC[C@@H]2Oc1ccc2[nH]nc(-c3cnn(C(F)F)c3)c2c1 (single isomer, unassigned) [Example 50, enantiomer 1, 1-((3-(1-(Difluoromethyl)-1H-pyrazol-4-yl)-1H-indazol-5-yl)oxy)-4-methyl-2,3-dihydro-1H-indene-5-carbonitrile] | < 100 | < 100 | – |
| Cc1c(C#N)ccc2c1CC[C@@H]2Oc1ccc2[nH]nc(-c3cnn(C(F)F)c3)c2c1 (single isomer, unassigned) [Example 50, enantiomer 2, 1-((3-(1-(Difluoromethyl)-1H-pyrazol-4-yl)-1H-indazol-5-yl)oxy)-4-methyl-2,3-dihydro-1H-indene-5-carbonitrile] | 100 to 1000 | < 100 | – |
| N#Cc1ccc2c(c1F)CC[C@@H]2Oc1ccc2[nH]nc(-c3cnn(C(F)F)c3)c2c1 (single isomer, unassigned) [Example 51, enantiomer 1, 1-((3-(1-(Difluoromethyl)-1H-pyrazol-4-yl)-1H-indazol-5-yl)oxy)-4-fluoro-2,3-dihydro-1H-indene-5-carbonitrile] | < 100 | < 100 | – |
| Cc1c(C#N)ccc2c1CC[C@@H]2Nc1ccc2[nH]nc(-c3cnn(C(F)F)c3)c2c1 (single isomer, unassigned) [Example 52, enantiomer 1, 1-((3-(1-(Difluoromethyl)-1H-pyrazol-4-yl)-1H-indazol-5-yl)amino)-4-methyl-2,3-dihydro-1H-indene-5-carbonitrile] | < 100 | < 100 | – |
| N#Cc1ccc2c(c1F)CC[C@H]2Nc1ccc2[nH]nc(-c3cnn(C(F)F)c3)c2c1 (single isomer, unassigned) [Example 53, enantiomer 1, 1-((3-(1-(Difluoromethyl)-1H-pyrazol-4-yl)-1H-indazol-5-yl)amino)-4-fluoro-2,3-dihydro-1H-indene-5-carbonitrile] | < 100 | < 100 | – |
| N#Cc1ccc2c(c1F)CC[C@H]2Nc1ccc2[nH]nc(-c3cnn(C(F)F)c3)c2c1 (single isomer, unassigned) [Example 53, enantiomer 2, 1-((3-(1-(Difluoromethyl)-1H-pyrazol-4-yl)-1H-indazol-5-yl)amino)-4-fluoro-2,3-dihydro-1H-indene-5-carbonitrile] | < 100 | 100 to 1000 | – |
| N#Cc1ccc2c(c1)CCC[C@@H]2Nc1ccc2[nH]nc(C3=CCCCC3)c2c1 (single isomer, unassigned) [Example 54, 5-((3-(Cyclohex-1-en-1-yl)-1H-indazol-5-yl)amino)-5,6,7,8-tetrahydronaphthalene-2-carbonitrile] | 100 to 1000 | 1000 to 10000 | – |

Continued, values first:

| IC50 (LRRK2 G2019S) [nM] | IC50 (LRRK2 WT; class symbols) [nM] | IC50 (LRRK2 WT; numeric bound) [nM] | Compound |
| --- | --- | --- | --- |
| < 100 | < 100 | – | N#Cc1cc2c(nn1)[C@@H](Oc1ccc3[nH]nc(-c4cnco4)c3c1)CC2 (single isomer, unassigned) [Example 41, enantiomer 1, 7-((3-(Oxazol-5-yl)-1H-indazol-5-yl)oxy)-6,7-dihydro-5H-cyclopenta[c]pyridazine-3-carbonitrile] |
| < 100 | < 100 | – | N#Cc1ccc2c(c1)CC(F)(F)[C@@H]2Nc1ccc2[nH]nc(-c3cnco3)c2c1 (single isomer, unassigned) [Example 42, enantiomer 1, 2,2-Difluoro-1-((3-(oxazol-5-yl)-1H-indazol-5-yl)amino)-2,3-dihydro-1H-indene-5-carbonitrile] |
| < 100 | 100 to 1000 | – | Cc1n[nH]c2ccc(N[C@H]3CCCc4cc(C#N)ccc43)cc12 (single isomer, unassigned) [Example 43, enantiomer 1, 5-((3-Methyl-1H-indazol-5-yl)amino)-5,6,7,8-tetrahydronaphthalene-2-carbonitrile] |
| 100 to 1000 | 1000 to 10000 | – | Cc1n[nH]c2ccc(N[C@H]3CCCc4cc(C#N)ccc43)cc12 (single isomer, unassigned) [Example 43, enantiomer 2, 5-((3-Methyl-1H-indazol-5-yl)amino)-5,6,7,8-tetrahydronaphthalene-2-carbonitrile] |
| < 100 | < 100 | – | N#Cc1ccc2c(c1)CCC[C@@H]2Nc1ccc2[nH]nc(-c3cncs3)c2c1 (single isomer, unassigned) [Example 44, 5-((3-(Thiazol-5-yl)-1H-indazol-5-yl)amino)-5,6,7,8-tetrahydronaphthalene-2-carbonitrile] |
| 100 to 1000 | 100 to 1000 | – | N#Cc1nc2c(s1)[C@@H](Nc1ccc3[nH]nc(-c4cnco4)c3c1)CCC2 (single isomer, unassigned) [Example 47, enantiomer 1, 7-((3-(Oxazol-5-yl)-1H-indazol-5-yl)amino)-4,5,6,7-tetrahydrobenzo[d]thiazole-2-carbonitrile] |
| < 100 | < 100 | – | N#Cc1nc2c(s1)[C@@H](Nc1ccc3[nH]nc(-c4cnco4)c3c1)CCC2 (single isomer, unassigned) [Example 47, enantiomer 2, 7-((3-(Oxazol-5-yl)-1H-indazol-5-yl)amino)-4,5,6,7-tetrahydrobenzo[d]thiazole-2-carbonitrile] |
| < 100 | < 100 | – | N#Cc1cnc2c(c1)C1CC1[C@@H]2Nc1ccc2[nH]nc(-c3cnco3)c2c1 (single isomer, unassigned) [Example 48, enantiomer 1, 6-((3-(Oxazol-5-yl)-1H-indazol-5-yl)amino)-4b,5,5a,6-tetrahydrocyclopropa[3,4]cyclopenta[1,2-b]pyridine-3-carbonitrile] |
| < 100 | < 100 | – | N#Cc1cnc2c(c1)CCC[C@@H]2Nc1ccc2[nH]nc(-c3cnn(C(F)F)c3)c2c1 (single isomer, unassigned) [Example 49, enantiomer 1, 8-((3-(1-(Difluoromethyl)-1H-pyrazol-4-yl)-1H-indazol-5-yl)amino)-5,6,7,8-tetrahydroquinoline-3-carbonitrile] |
| < 100 | 100 to 1000 | – | N#Cc1cnc2c(c1)CCC[C@@H]2Nc1ccc2[nH]nc(-c3cnn(C(F)F)c3)c2c1 (single isomer, unassigned) [Example 49, enantiomer 2, 8-((3-(1-(Difluoromethyl)-1H-pyrazol-4-yl)-1H-indazol-5-yl)amino)-5,6,7,8-tetrahydroquinoline-3-carbonitrile] |
